The structures appear in SMILES notation.

Common to all, as to assay type: cell-based
For one assay, the system named is C. albicans & A. niger. Kind of assay: Challenge Test end point on yeast and mold and Synergy Index (Kull). The conditions noted are these: Bioban CS-1135 acting alone (QA); test stabilized acrylic latex A. As to the method: Each of the 25-g samples were inoculated or challenged with 0.10 ml of the bacterial inoculum, the yeast inoculum, and the mold inoculum respectively on day-0 and day-14. All samples were stored at ambient temperature. Each sample (10 microliter) was streaked on appropriate agar plates (bacteria on Tryptic Soy Agar (Difco Laboratories, Detroit, Mich.) plates with neutralizer and yeast/mold on Potato Dextrose Agar (Difco Laboratories, Detroit, Mich.) plates with neutralizer) on day-1, day-2, day-3, day-7, day-14, day-15, day-16, day-17, day-21, and day-28 to test for survivors. Streaked plates were incubated at appropriate temperature and time (48-hr at 35±2° C. for bacteria and 72-hr at 28±2° C. for yeast/mold). […] Plates were read after incubation time. […]
Synergism was determined by the method described by F. C. […] Eisman, H. D. Sylwestrowicz, and R. L. Mayer in Applied Microbiology, Volume 9, pages 538-541, 1961 using the ratio determined by • Synergy Index (SI)=Qa/QA+Qb/QB=1 is additivity, <1 is synergism, and >1 is antagonism • where, • Qa=concentration of compound A, in the mixture, producing an end point • QA=concentration of compound A, acting alone, producing an end point • Qb=concentration of compound B, in the mixture, producing an end point • QB=concentration of compound B, acting alone, producing an end point

In assay [1] the test system is Escherichia coli, Pseudomonas aeruginosa, Candida albicans, Aspergillus niger. Nature of the assay: Challenge Test, all test organisms. The following applies: stabilized acrylic latex A. The protocol:
The following cultures were obtained from American Type Culture Collection (ATCC) at 10801 University Boulevard, Manassas, Va. 20110-2209: Escherichia coli #11229, Pseudomonas aeruginosa #15442, Candida albicans #10231, Aspergillus niger #6275. The bacterial inoculum was 0.10 ml of a 1:1 mixture of the 24-hr±4 hr culture of E. coli and P. aeruginosa in 25 grams of sample to give approximately 4×10^6 CFU/g. Both E. coli culture and the P. aeruginosa culture were grown in Nutrient Broth (Difco Laboratories, Detroit, Mich.) at 35° C. The yeast inoculum was 0.10 ml of a 72-hr±4 hr culture of C. albicans in 25 grams of sample to give approximately 2×10^5 CFU/g. The C. albicans culture was grown in Potato Dextrose Broth (Difco Laboratories, Detroit, Mich.) at 28° C. The mold inoculum was 0.10 ml of A. niger culture specimen in 25 grams of sample to give approximately 2×10^5 CFU/g. The culture specimen was obtained from 7-day-old A. niger culture grown on Sabouraud Dextrose Agar (Difco Laboratories, Detroit, Mich.) with 0.2% Triton X-100 in 0.85% saline. Each of the 25-g samples were inoculated or challenged with 0.10 ml of the bacterial inoculum, the yeast inoculum, and the mold inoculum respectively on day-0 and day-14. All samples were stored at ambient temperature. […] Plates were read after incubation time. […]

In a further assay the test system is Aspergillus niger #6275. Kind of assay: Challenge Test (Antimicrobial Effectiveness Test), mold inoculum. Further details: key to Challenge Test result: Mold A. niger: Fail: Recovery of surviving organisms at 14 days was a failing result for the challenge test. The following applies: for Challenge Test result: Mold A. niger: stabilized acrylic latex A, DN 22%. As to the method:
The following cultures were obtained from American Type Culture Collection (ATCC) at 10801 University Boulevard, Manassas, Va. 20110-2209: Escherichia coli #11229, Pseudomonas aeruginosa #15442, Candida albicans #10231, Aspergillus niger #6275. The mold inoculum was 0.10 ml of A. niger culture specimen in 25 grams of sample to give approximately 2×10^5 CFU/g. The culture specimen was obtained from 7-day-old A. niger culture grown on Sabouraud Dextrose Agar (Difco Laboratories, Detroit, Mich.) with 0.2% Triton X-100 in 0.85% saline. Each of the 25-g samples were inoculated or challenged with 0.10 ml of the bacterial inoculum, the yeast inoculum, and the mold inoculum respectively on day-0 and day-14. All samples were stored at ambient temperature. Each sample (10 microliter) was streaked on appropriate agar plates (bacteria on Tryptic Soy Agar (Difco Laboratories, Detroit, Mich.) plates with neutralizer and yeast/mold on Potato Dextrose Agar (Difco Laboratories, Detroit, Mich.) plates with neutralizer) on day-1, day-2, day-3, day-7, day-14, day-15, day-16, day-17, day-21, and day-28 to test for survivors. Streaked plates were incubated at appropriate temperature and time (48-hr at 35±2° C. for bacteria and 72-hr at 28±2° C. for yeast/mold). On day-14, each sample was re-inoculated with appropriate inoculum after streaking on agar plates. Plates were read after incubation time. Recovery of surviving organisms at 14 days was a failing result for the challenge test. Biocides were always added after the reaction has been completed and after the batch has been cooled to <50° C. The desired temperature was dependent on the specific biocide. Many biocides become deactivated if exposed to high temperatures for an extended time. Each biocide was diluted with about 5× its weight with DI water and slowly added to the batch with good agitation. The dilution is to prevent the biocide from shocking the latex. The batch was mixed for a minimum of 20 minutes after the biocide was added to ensure good incorporation. If any temporary destabilization to the latex had occurred, it had time to recover prior to filtration. The Challenge Test is a qualitative laboratory procedure used to differentiate poorly and marginally preserved products from well-preserved products. Products are intentionally inoculated with test organisms and then evaluated by use of streak plating technique to determine if microbial reduction has been attained.

For `CC1(C)COCN1` [Bioban CS-1135, 4,4-dimethyl-oxazolidine], in the assay on C. albicans & A. niger, the “Compound A end-point in %” value stood at 2%. For the same compound, the “concentration required to kill all organisms” value in assay [1] was 2.0%. Further, the “Challenge Test result: Mold A. niger” value in the assay on Aspergillus niger #6275 (0.10% Bioban CS-1135, 0.00% Bronopol, pH 6.68) is on record as “Fail”; in the assay on Aspergillus niger #6275 (0.20% Bioban CS-1135, 0.00% Bronopol, pH 6.69), “Pass”; in the assay on Aspergillus niger #6275 (0.80% Bioban CS-1135, 0.00% Bronopol, pH 6.62) it was “Pass”; with Aspergillus niger #6275 (1.20% Bioban CS-1135, 0.00% Bronopol, pH 6.64), “Pass”; in the assay on Aspergillus niger #6275 (2.00% Bioban CS-1135, 0.00% Bronopol, pH 6.82) it was “Pass”.

Consider `O=[N+]([O-])C(Br)(CO)CO` [Bronopol, 2-bromo-2-nitro-1,3-propanediol], for which, in assay [1], the “concentration required to kill all organisms” value was found to be 0.5%. The “Challenge Test result: Mold A. niger” value in the assay with Aspergillus niger #6275 (0.10% Bronopol (30% active), 0.00% Bioban CS-1135, pH 6.64, Table 1) was “Fail”; with Aspergillus niger #6275 (0.10% Bronopol (30% active), 0.00% Dowicil 75, pH 6.64, Table 3), “Fail”; in the assay on Aspergillus niger #6275 (0.20% Bronopol (30% active), 0.00% Bioban CS-1135, pH 6.65, Table 1), “Fail”; with Aspergillus niger #6275 (0.20% Bronopol (30% active), 0.00% Dowicil 75, pH 6.65, Table 3) it was “Fail”; in the assay with Aspergillus niger #6275 (0.50% Bronopol (30% active), 0.00% Bioban CS-1135, pH 6.58, Table 1) it was “Pass”; in the assay on Aspergillus niger #6275 (0.50% Bronopol (30% active), 0.00% Dowicil 75, pH 6.58, Table 3) it was “Pass”. In addition, the “Challenge Test result: Mold A. niger” value with Aspergillus niger #6275 (0.80% Bronopol (30% active), 0.00% Bioban CS-1135, pH 6.57, Table 1) is given as “Pass”; in the assay with Aspergillus niger #6275 (0.80% Bronopol (30% active), 0.00% Dowicil 75, pH 6.57, Table 3) it was “Pass”; with Aspergillus niger #6275 (1.20% Bronopol (30% active), 0.00% Bioban CS-1135, pH 6.57, Table 1), “Pass”; with Aspergillus niger #6275 (1.20% Bronopol (30% active), 0.00% Dowicil 75, pH 6.57, Table 3), “Pass”. Also, in the assay with Aspergillus niger #6275 (0.2% BRONOPOL, acrylic latex A), the “killing of the mold (A. niger)” value is given as “failed to kill”. In addition, the “control of the growth of Aspergillus niger” value in the assay with Aspergillus niger #6275 (maximum allowable level, test stabilized acrylic latex) is listed as “failed to control”.

(Values after US7718715B2, “pH-modified latex comprising a synergistic combination of biocides” (S.C. Johnson & Son, Inc., priority 2004, dated 2010).)
